Reference: PubChem BioAssay AID330 (DTP/NCI, 2004)
Where “and” joins values, the source holds several entries; their conditions need not be identical. Equal entries are not always repeated. Toxic doses and inconclusive results are not listed. The calls were made as follows: active = survival T/C of 150% or more; inactive = T/C below 125% in these data.

Test system: P388 leukemia ip, CD2F1 mice, survival T/C
Test: NCI In Vivo Anticancer Drug Screen. Data for tumor model P388 Leukemia (intraperitoneal) in CD2F1 (CDF1) mice
Settings: endpoint: median survival time, higher = longer survival
Outline: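 Mice carrying the transplanted tumor received test compound or vehicle. Survival was recorded in each group, and the value is the treated-group measurement divided by that of the vehicle-treated control group.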

[1] = dose: 12.5 mg/kg/injection, schedule: Q01DX005 (ip), vehicle: Klucel (hydroxypropylcellulose) (HPC)
[2] = dose: 50.0 mg/kg/injection, schedule: Q01DX005 (ip), vehicle: Klucel (hydroxypropylcellulose) (HPC)
[3] = dose: 50.0 mg/kg/injection, schedule: Q01DX009 (ip), vehicle: suspension in saline
[4] = dose: 100.0 mg/kg/injection, schedule: Q01DX009 (ip), vehicle: suspension in saline
[5] = dose: 200.0 mg/kg/injection, schedule: Q01DX009 (ip), vehicle: suspension in saline
[6] = dose: 100.0 mg/kg/injection, schedule: Q04DX003 (ip), vehicle: Klucel (hydroxypropylcellulose) (HPC)
[7] = dose: 200.0 mg/kg/injection, schedule: Q04DX003 (ip), vehicle: Klucel (hydroxypropylcellulose) (HPC)
[8] = dose: 60.0 mg/kg/injection, schedule: Q01DX005 (ip), vehicle: saline with Tween-80
[9] = dose: 120.0 mg/kg/injection, schedule: Q01DX005 (ip), vehicle: saline with Tween-80
[10] = dose: 240.0 mg/kg/injection, schedule: Q01DX005 (ip), vehicle: saline with Tween-80
[11] = dose: 50.0 mg/kg/injection, schedule: Q01DX009 (ip), vehicle: saline
[12] = dose: 100.0 mg/kg/injection, schedule: Q01DX009 (ip), vehicle: saline
[13] = dose: 200.0 mg/kg/injection, schedule: Q01DX009 (ip), vehicle: saline
[14] = dose: 100.0 mg/kg/injection, schedule: Q01DX005 (ip), vehicle: Klucel (hydroxypropylcellulose) (HPC)
[15] = dose: 200.0 mg/kg/injection, schedule: Q01DX005 (ip), vehicle: Klucel (hydroxypropylcellulose) (HPC)
[16] = dose: 12.5 mg/kg/injection, schedule: Q01DX009 (ip), vehicle: Klucel (hydroxypropylcellulose) (HPC)
[17] = dose: 25.0 mg/kg/injection, schedule: Q01DX009 (ip), vehicle: Klucel (hydroxypropylcellulose) (HPC)
[18] = dose: 50.0 mg/kg/injection, schedule: Q01DX009 (ip), vehicle: Klucel (hydroxypropylcellulose) (HPC)
[19] = dose: 100.0 mg/kg/injection, schedule: Q01DX009 (ip), vehicle: Klucel (hydroxypropylcellulose) (HPC)
[20] = dose: 200.0 mg/kg/injection, schedule: Q01DX009 (ip), vehicle: Klucel (hydroxypropylcellulose) (HPC)
[21] = dose: 50.0 mg/kg/injection, schedule: Q01DX001 (ip), vehicle: Klucel (hydroxypropylcellulose) (HPC)
[22] = dose: 50.0 mg/kg/injection, schedule: Q01DX005 (ip), vehicle: saline with Tween-80
[23] = dose: 100.0 mg/kg/injection, schedule: Q01DX005 (ip), vehicle: saline with Tween-80
[24] = dose: 200.0 mg/kg/injection, schedule: Q01DX005 (ip), vehicle: saline with Tween-80
[25] = dose: 50.0 mg/kg/injection, schedule: Q01DX009 (ip), vehicle: saline with Tween-80

Measured: T/C

NC(=O)C(=Nc1ccccc1)Nc1ccccc1
inactive: dose: 100.0 mg/kg/injection, schedule: Q01DX001 (ip), vehicle: saline 115 % of control | dose: 200.0 mg/kg/injection, schedule: Q01DX001 (ip), vehicle: saline 107 % of control | dose: 400.0 mg/kg/injection, schedule: Q01DX001 (ip), vehicle: saline 104 % of control

CCN(CC)c1cc(C(=O)O)cc(N(CC)CC)n1
inactive: dose: 6.25 mg/kg/injection, schedule: Q01DX005 (ip), vehicle: sodium bicarbonate 104 % of control | [1] 98 % of control and 100 % of control | dose: 12.5 mg/kg/injection, schedule: Q01DX005 (ip), vehicle: sodium bicarbonate 114 % of control | dose: 25.0 mg/kg/injection, schedule: Q01DX005 (ip), vehicle: Klucel (hydroxypropylcellulose) (HPC) 98 % of control and 106 % of control | dose: 25.0 mg/kg/injection, schedule: Q01DX005 (ip), vehicle: sodium bicarbonate 120 % of control | [2] 100 % of control and 120 % of control and 123 % of control | dose: 50.0 mg/kg/injection, schedule: Q01DX005 (ip), vehicle: sodium bicarbonate 121 % of control

Fc1ccc(CSC(=S)Nc2ccc(I)cc2)cc1
inactive: [3] 97 % of control | [4] 93 % of control | [5] 103 % of control

COc1cccc2cc3c(cc12)C(=O)C(C)=C(C)C3=O
inactive: [6] 94 % of control | [7] 97 % of control | dose: 400.0 mg/kg/injection, schedule: Q04DX003 (ip), vehicle: Klucel (hydroxypropylcellulose) (HPC) 109 % of control

CCC(=O)Cc1nc2n(c1O)/C(=N/C(=O)Nc1ccc(Cl)cc1)N=N2
inactive: [8] 100 % of control | [9] 98 % of control | [10] 98 % of control

N/C(=N\OC(=O)Nc1ccc(Cl)c(Cl)c1)c1ccccc1
inactive: [11] 101 % of control | [12] 104 % of control | [13] 100 % of control

S=C(Nc1ccc(Br)cc1)SCc1ccc(Cl)c(Cl)c1
inactive: [3] 105 % of control | [4] 111 % of control | [5] 110 % of control

CN(C)/[N+]([O-])=N/N1C(=O)c2ccccc2C1=O
inactive: [2] 101 % of control | [14] 105 % of control | [15] 101 % of control

S=C(Nc1ccc(Cl)cc1)Nc1ncccn1
inactive: [16] 98 % of control | [17] 103 % of control | [18] 100 % of control and 97 % of control

COC(=O)C(CSSCC(C(=O)NC(Cc1ccccc1)C(=O)NCC(=O)OC(C)(C)C)N1C(=O)CCC1=O)NC(=O)OCc1ccccc1 (configuration not stated)
inactive: [2] 103 % of control | [14] 93 % of control | [15] 96 % of control

Oc1ccccc1C=Nc1ccccc1N=Cc1ccccc1O.[Zn]
inactive: [18] 97 % of control | [19] 98 % of control | [20] 95 % of control

Cc1cc(N/N=C/c2ccc([N+](=O)[O-])o2)c2cc3c(cc2n1)OCO3
inactive: [2] 91 % of control | [14] 98 % of control | [15] 96 % of control

C(=C\c1ccc2c(c1)OCO2)/c1ccnnc1
inactive: [11] 100 % of control | [12] 97 % of control | [13] 100 % of control

O=[N+]([O-])c1cccc2nc(-c3ccccn3)n(CCc3ccncc3)c12
inactive: [21] 104 % of control | dose: 100.0 mg/kg/injection, schedule: Q01DX001 (ip), vehicle: Klucel (hydroxypropylcellulose) (HPC) 104 % of control | dose: 200.0 mg/kg/injection, schedule: Q01DX001 (ip), vehicle: Klucel (hydroxypropylcellulose) (HPC) 101 % of control

c1ccc(Nc2ncnc3ccccc23)cc1
inactive: [18] 102 % of control | [19] 102 % of control | [20] 112 % of control

Cc1ccc(S(=O)(=O)OCC(COS(=O)(=O)c2ccc(C)cc2)C(C)(C)C)cc1
inactive: [22] 101 % of control | [23] 104 % of control | [24] 107 % of control

COC(=O)C1(CC(=O)c2ccc(Cl)c(Cl)c2)NC(=S)NC(=O)C1C#N (configuration not stated)
inactive: [8] 106 % of control | [9] 97 % of control | [10] 96 % of control

CC(CC(=O)c1ccccc1)=NCCN=C(C)CC(=O)c1ccccc1.c1cc[c]([Sn][c]2ccccc2)cc1
inactive: dose: 25.0 mg/kg/injection, schedule: Q01DX001 (ip), vehicle: Klucel (hydroxypropylcellulose) (HPC) 108 % of control | [21] 124 % of control

O=C1C(CCl)(CCl)CCC1(CCl)CCl
inactive: [22] 100 % of control | [23] 105 % of control | [24] 94 % of control

CC1CCC(C(C)C)C(NC(=O)c2cc[n+](C)cc2)C1 (configuration not stated)
inactive: [2] 100 % of control | [14] 108 % of control

C[N+](C)(C)C1(Cc2ccccc2)c2ccccc2-c2ccc(Cl)cc21 (configuration not stated)
inactive: [16] 107 % of control | [17] 105 % of control | [18] 108 % of control and 94 % of control

CC1=N/C(=C\c2cccc(Br)c2)C(=O)O1
inactive: [2] 98 % of control | [14] 98 % of control | [15] 98 % of control

CP1(=S)CC[C@H]2C3=C(CC[C@@H]21)CC(=O)CC3 (some centres not stated)
inactive: dose: 50.0 mg/kg/injection, schedule: Q01DX005 (ip), vehicle: saline + Tween-80 + alcohol 106 % of control | dose: 100.0 mg/kg/injection, schedule: Q01DX005 (ip), vehicle: saline + Tween-80 + alcohol 103 % of control | dose: 200.0 mg/kg/injection, schedule: Q01DX005 (ip), vehicle: saline + Tween-80 + alcohol 97 % of control

O=C(NC(Cc1ccc(OC(=O)OCc2ccccc2)cc1)C(=O)O)OCc1ccccc1 (configuration not stated)
inactive: [22] 99 % of control | [23] 90 % of control | [24] 101 % of control

CC(=O)NC(Cn1cc(C(N)=O)ccc1=N)C(=O)O (configuration not stated)
inactive: dose: 1.56 mg/kg/injection, schedule: Q01DX005 (ip), vehicle: Klucel (hydroxypropylcellulose) (HPC) 102 % of control | dose: 3.12 mg/kg/injection, schedule: Q01DX005 (ip), vehicle: Klucel (hydroxypropylcellulose) (HPC) 108 % of control and 114 % of control | dose: 6.25 mg/kg/injection, schedule: Q01DX005 (ip), vehicle: Klucel (hydroxypropylcellulose) (HPC) 115 % of control and 122 % of control | [1] 121 % of control

NC1=CC(=O)c2nc(-c3ccccc3N)ccc2C1=O
inactive: [6] 109 % of control | [7] 105 % of control

CSc1nc(N)c(C(=O)Nc2ccc3ccccc3c2)s1
inactive: [18] 107 % of control | [19] 98 % of control | [20] 99 % of control

CCC1(c2ccccc2)C(=O)N(CCCl)C(=O)N(CCCl)C1=O
inactive: [18] 92 % of control | [19] 92 % of control | [20] 92 % of control

O=[N+]([O-])c1ccc(OCCSc2ccccc2)cc1
inactive: [25] 90 % of control | dose: 100.0 mg/kg/injection, schedule: Q01DX009 (ip), vehicle: saline with Tween-80 98 % of control | dose: 200.0 mg/kg/injection, schedule: Q01DX009 (ip), vehicle: saline with Tween-80 100 % of control

CC12CCC(Cl)CC1=CCC1C2CCC2(C)C1CCCN2CCCl (configuration not stated)
inactive: dose: 6.25 mg/kg/injection, schedule: Q01DX001 (ip), vehicle: saline 99 % of control | dose: 12.5 mg/kg/injection, schedule: Q01DX001 (ip), vehicle: saline 98 % of control | dose: 25.0 mg/kg/injection, schedule: Q01DX001 (ip), vehicle: saline with Tween-80 109 % of control | dose: 25.0 mg/kg/injection, schedule: Q01DX001 (ip), vehicle: saline 98 % of control and 104 % of control

c1ccc(C2c3ccccc3Nc3ccccc32)cc1
inactive: dose: 6.25 mg/kg/injection, schedule: Q04DX002 (ip), vehicle: saline with Tween-80 104 % of control | dose: 12.5 mg/kg/injection, schedule: Q04DX002 (ip), vehicle: saline with Tween-80 97 % of control | dose: 25.0 mg/kg/injection, schedule: Q04DX002 (ip), vehicle: saline with Tween-80 97 % of control

CC(c1ccccc1)C(OC(=O)c1ccc([N+](=O)[O-])cc1)c1ccccc1 (configuration not stated)
inactive: dose: 12.5 mg/kg/injection, schedule: Q01DX009 (ip), vehicle: saline with Tween-80 100 % of control | dose: 25.0 mg/kg/injection, schedule: Q01DX009 (ip), vehicle: saline with Tween-80 100 % of control | [25] 90 % of control

C#CC(OS(=O)(=O)C(F)(F)F)=C1C2CC3CC(C2)CC1C3
inactive: [22] 100 % of control | [23] 98 % of control | [24] 100 % of control
